From ChEMBL document CHEMBL4507263, “Data for DCP probe BAY-474” (2021)

Tests used:
[1] = target: Calcium/calmodulin-dependent protein kinase type 1 (Homo sapiens) (UniProt Q14012); test: CaMKI (h) Millipore kinase activity assay; settings: Compound concentration 1.0 uM
[2] = target: Casein kinase I isoform gamma-1 (Homo sapiens) (UniProt Q9HCP0); test: CK1gamma1 (h) Millipore kinase activity assay; settings: Compound concentration 1.0 uM
[3] = target: Insulin receptor (Homo sapiens) (UniProt P06213); test: IR (h) Millipore kinase activity assay; settings: Compound concentration 1.0 uM
[4] = target: MAP kinase-activated protein kinase 3 (Homo sapiens) (UniProt Q16644); test: MAPKAP-K3 (h) Millipore kinase activity assay; settings: Compound concentration 1.0 uM
[5] = target: Mitogen-activated protein kinase kinase kinase 9 (Homo sapiens) (UniProt P80192); test: MLK1 (h) Millipore kinase activity assay; settings: Compound concentration 1.0 uM
[6] = target: Muscle, skeletal receptor tyrosine-protein kinase (Homo sapiens) (UniProt O15146); test: MuSK (h) Millipore kinase activity assay; settings: Compound concentration 1.0 uM
[7] = target: Serine/threonine-protein kinase PAK 3 (Homo sapiens) (UniProt O75914); test: PAK3 (h) Millipore kinase activity assay; settings: Compound concentration 1.0 uM
[8] = target: Serine/threonine-protein kinase N2 (Homo sapiens) (UniProt Q16513); test: PRK2 (h) Millipore kinase activity assay; settings: Compound concentration 1.0 uM
[9] = target: Receptor-interacting serine/threonine-protein kinase 2 (Homo sapiens) (UniProt O43353); test: RIPK2 (h) Millipore kinase activity assay; settings: Compound concentration 1.0 uM
[10] = target: Ribosomal protein S6 kinase alpha-6 (Homo sapiens) (UniProt Q9UK32); test: Rsk4 (h) Millipore kinase activity assay; settings: Compound concentration 1.0 uM
[11] = target: Tyrosine-protein kinase SYK (Homo sapiens) (UniProt P43405); test: Syk (h) Millipore kinase activity assay; settings: Compound concentration 1.0 uM
[12] = target: BDNF/NT-3 growth factors receptor (Homo sapiens) (UniProt Q16620); test: TrkB (h) Millipore kinase activity assay; settings: Compound concentration 1.0 uM
[13] = target: ATP-sensitive inward rectifier potassium channel 11 (Cricetulus griseus) (UniProt A0A3L7HHE1); test: Inhibition of Potassium Channel [KATP] at 10 µM in the Eurofins-Panlabs radioligand binding assay (Eurofins_assay_265600); settings: Cricetinae; Compound concentration 10.0 uM
hERG (KCNH2) = hERG (KCNH2) (Homo sapiens, UniProt Q12809); test: Inhibition of Potassium Channel hERG at 10 µM in the Eurofins-Panlabs radioligand binding assay (Eurofins_assay_265900); set-up: ligand concentration 1.5 nM, non-specific ligand with concentration Astemizole, incubation time 60 min, incubation temperature 25 °C; settings: HEK-293 cells expressing human recombinant hERG, probe [3H] Astemizole, compound concentration 10 uM
[14] = target: Histamine H1 receptor (Homo sapiens) (UniProt P35367); settings: Compound concentration 10.0 uM
[15] = target: Muscarinic acetylcholine receptor M3 (Homo sapiens) (UniProt P20309); settings: Compound concentration 10.0 uM
[16] = target: Sodium-dependent noradrenaline transporter (Homo sapiens) (UniProt P23975); settings: Compound concentration 10.0 uM
[17] = target: 5-hydroxytryptamine receptor 6 (Homo sapiens, UniProt P50406); test: GPCRScan assay: inhibition of 5-HT6; set-up: radioligand conc. used [nm] 2.0 – 4.0, parental cells stable HEK
D(1B) dopamine receptor = D(1B) dopamine receptor (Homo sapiens, UniProt P21918); test: GPCRScan assay: inhibition of D5; set-up: radioligand conc. used [nm] 2.0 – 3.0, parental cells HEKT
[18] = target: Activin receptor type-2B (Homo sapiens) (UniProt Q13705); settings: Compound concentration 1000.0 nM
[19] = target: Cytoplasmic tyrosine-protein kinase BMX (Homo sapiens) (UniProt P51813); settings: Compound concentration 1000.0 nM
[20] = target: Calcium/calmodulin-dependent protein kinase type II subunit gamma (Homo sapiens) (UniProt Q13555); settings: Compound concentration 1000.0 nM
[21] = target: Dual specificity protein kinase CLK2 (Homo sapiens) (UniProt P49760); settings: Compound concentration 1000.0 nM
[22] = system: Epidermal growth factor receptor (Homo sapiens), P00533 [G719S]; settings: Compound concentration 1000.0 nM
[23] = system: Epidermal growth factor receptor (Homo sapiens), P00533 [L858R,T790M]; settings: Compound concentration 1000.0 nM
[24] = target: Ephrin type-A receptor 7 (Homo sapiens) (UniProt Q15375); settings: Compound concentration 1000.0 nM
[25] = target: Fibroblast growth factor receptor 3 (Homo sapiens) (UniProt P22607); settings: Compound concentration 1000.0 nM
[26] = target: Vascular endothelial growth factor receptor 1 (Homo sapiens) (UniProt P17948); settings: Compound concentration 1000.0 nM
[27] = target: Receptor-type tyrosine-protein kinase FLT3 (Homo sapiens) (UniProt P36888); settings: Compound concentration 1000.0 nM
[28] = target: Homeodomain-interacting protein kinase 4 (Homo sapiens) (UniProt Q8NE63); settings: Compound concentration 1000.0 nM
[29] = target: Tyrosine-protein kinase ITK/TSK (Homo sapiens) (UniProt Q08881); settings: Compound concentration 1000.0 nM
[30] = target: Mitogen-activated protein kinase kinase kinase 15 (Homo sapiens) (UniProt Q6ZN16); settings: Compound concentration 1000.0 nM
[31] = target: MAP kinase-interacting serine/threonine-protein kinase 1 (Homo sapiens) (UniProt Q9BUB5); settings: Compound concentration 1000.0 nM
[32] = target: Myosin light chain kinase family member 4 (Homo sapiens) (UniProt Q86YV6); settings: Compound concentration 1000.0 nM
[33] = target: Mitogen-activated protein kinase 11 (Homo sapiens) (UniProt Q15759); settings: Compound concentration 1000.0 nM
[34] = target: Serine/threonine-protein kinase PAK 4 (Homo sapiens) (UniProt O96013); settings: Compound concentration 1000.0 nM
[35] = target: Cyclin-dependent kinase 17 (Homo sapiens) (UniProt Q00537); settings: Compound concentration 1000.0 nM
[36] = target: Cyclin-dependent kinase 18 (Homo sapiens) (UniProt Q07002); settings: Compound concentration 1000.0 nM
[37] = target: Serine/threonine-protein kinase pim-1 (Homo sapiens) (UniProt P11309); settings: Compound concentration 1000.0 nM
[38] = target: cAMP-dependent protein kinase catalytic subunit alpha (Homo sapiens) (UniProt P17612); settings: Compound concentration 1000.0 nM
[39] = target: Serine/threonine-protein kinase PknB (Mycobacterium tuberculosis) (UniProt P9WI81); settings: Compound concentration 1000.0 nM
[40] = target: High affinity nerve growth factor receptor (Homo sapiens) (UniProt P04629); settings: Compound concentration 1000.0 nM
[41] = target: Serine/threonine-protein kinase WNK1 (Homo sapiens) (UniProt Q9H4A3); settings: Compound concentration 1000.0 nM
[42] = target: Tyrosine-protein kinase ZAP-70 (Homo sapiens) (UniProt P43403); settings: Compound concentration 1000.0 nM

Sequence of Mitogen-activated protein kinase kinase kinase 15 (Homo sapiens) (Q6ZN16 whole entry): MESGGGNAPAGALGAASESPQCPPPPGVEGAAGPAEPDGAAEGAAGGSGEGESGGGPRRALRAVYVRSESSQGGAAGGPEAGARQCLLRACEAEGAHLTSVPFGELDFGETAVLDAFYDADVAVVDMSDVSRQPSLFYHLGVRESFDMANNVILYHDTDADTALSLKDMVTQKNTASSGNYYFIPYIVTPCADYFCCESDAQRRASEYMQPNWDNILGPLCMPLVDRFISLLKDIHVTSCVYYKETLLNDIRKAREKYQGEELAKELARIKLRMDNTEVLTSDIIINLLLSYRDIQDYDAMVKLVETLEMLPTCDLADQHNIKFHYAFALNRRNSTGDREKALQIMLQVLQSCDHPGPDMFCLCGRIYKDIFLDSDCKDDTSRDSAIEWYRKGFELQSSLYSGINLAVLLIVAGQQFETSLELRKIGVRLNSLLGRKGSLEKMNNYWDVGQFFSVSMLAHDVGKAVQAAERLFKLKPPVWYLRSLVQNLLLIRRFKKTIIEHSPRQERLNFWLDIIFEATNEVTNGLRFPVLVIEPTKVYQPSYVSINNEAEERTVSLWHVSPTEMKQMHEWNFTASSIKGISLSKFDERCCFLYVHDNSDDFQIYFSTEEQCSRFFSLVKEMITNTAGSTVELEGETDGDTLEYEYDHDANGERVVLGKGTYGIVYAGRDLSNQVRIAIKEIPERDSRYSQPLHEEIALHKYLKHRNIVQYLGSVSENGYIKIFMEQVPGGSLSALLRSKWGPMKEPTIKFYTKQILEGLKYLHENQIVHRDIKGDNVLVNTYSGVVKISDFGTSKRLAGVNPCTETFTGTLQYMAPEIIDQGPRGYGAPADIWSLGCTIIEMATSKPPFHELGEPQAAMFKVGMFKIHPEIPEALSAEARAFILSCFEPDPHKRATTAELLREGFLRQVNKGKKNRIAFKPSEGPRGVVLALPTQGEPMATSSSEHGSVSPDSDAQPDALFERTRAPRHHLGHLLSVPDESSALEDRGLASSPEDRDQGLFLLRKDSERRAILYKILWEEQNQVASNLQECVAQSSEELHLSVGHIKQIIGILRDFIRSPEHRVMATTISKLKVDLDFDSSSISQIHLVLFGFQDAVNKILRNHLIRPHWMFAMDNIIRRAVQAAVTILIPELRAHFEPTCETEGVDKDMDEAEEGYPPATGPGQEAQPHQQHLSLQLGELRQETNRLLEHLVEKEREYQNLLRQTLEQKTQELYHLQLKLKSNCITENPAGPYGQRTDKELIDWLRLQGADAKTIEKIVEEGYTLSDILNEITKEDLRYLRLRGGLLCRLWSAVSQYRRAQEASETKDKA
Sequence of Serine/threonine-protein kinase pim-1 (Homo sapiens) (P11309 whole entry, looked up): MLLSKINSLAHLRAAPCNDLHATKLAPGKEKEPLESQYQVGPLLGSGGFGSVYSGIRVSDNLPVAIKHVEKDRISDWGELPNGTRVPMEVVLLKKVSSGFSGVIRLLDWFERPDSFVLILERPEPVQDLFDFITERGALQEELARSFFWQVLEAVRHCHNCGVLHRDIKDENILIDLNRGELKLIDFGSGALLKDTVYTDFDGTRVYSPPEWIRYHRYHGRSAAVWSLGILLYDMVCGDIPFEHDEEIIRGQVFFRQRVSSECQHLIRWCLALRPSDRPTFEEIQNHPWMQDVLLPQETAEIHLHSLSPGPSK
Sequence of Dual specificity protein kinase CLK2 (Homo sapiens) (P49760 whole entry, looked up): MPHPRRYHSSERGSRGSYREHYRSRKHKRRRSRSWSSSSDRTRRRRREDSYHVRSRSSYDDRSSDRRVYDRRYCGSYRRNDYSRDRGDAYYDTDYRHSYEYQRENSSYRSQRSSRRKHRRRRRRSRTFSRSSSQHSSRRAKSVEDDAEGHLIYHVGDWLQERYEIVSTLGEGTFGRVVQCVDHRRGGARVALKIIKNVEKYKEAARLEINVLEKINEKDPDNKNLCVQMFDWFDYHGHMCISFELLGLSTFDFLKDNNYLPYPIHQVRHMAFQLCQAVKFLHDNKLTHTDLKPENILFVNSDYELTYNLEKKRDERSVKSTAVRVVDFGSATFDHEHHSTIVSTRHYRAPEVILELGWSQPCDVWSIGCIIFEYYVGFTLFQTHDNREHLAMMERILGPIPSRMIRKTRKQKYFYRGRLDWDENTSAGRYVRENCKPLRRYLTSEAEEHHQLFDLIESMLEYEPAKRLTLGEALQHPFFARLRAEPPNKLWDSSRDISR
Sequence of Receptor-type tyrosine-protein kinase FLT3 (Homo sapiens) (P36888 whole entry): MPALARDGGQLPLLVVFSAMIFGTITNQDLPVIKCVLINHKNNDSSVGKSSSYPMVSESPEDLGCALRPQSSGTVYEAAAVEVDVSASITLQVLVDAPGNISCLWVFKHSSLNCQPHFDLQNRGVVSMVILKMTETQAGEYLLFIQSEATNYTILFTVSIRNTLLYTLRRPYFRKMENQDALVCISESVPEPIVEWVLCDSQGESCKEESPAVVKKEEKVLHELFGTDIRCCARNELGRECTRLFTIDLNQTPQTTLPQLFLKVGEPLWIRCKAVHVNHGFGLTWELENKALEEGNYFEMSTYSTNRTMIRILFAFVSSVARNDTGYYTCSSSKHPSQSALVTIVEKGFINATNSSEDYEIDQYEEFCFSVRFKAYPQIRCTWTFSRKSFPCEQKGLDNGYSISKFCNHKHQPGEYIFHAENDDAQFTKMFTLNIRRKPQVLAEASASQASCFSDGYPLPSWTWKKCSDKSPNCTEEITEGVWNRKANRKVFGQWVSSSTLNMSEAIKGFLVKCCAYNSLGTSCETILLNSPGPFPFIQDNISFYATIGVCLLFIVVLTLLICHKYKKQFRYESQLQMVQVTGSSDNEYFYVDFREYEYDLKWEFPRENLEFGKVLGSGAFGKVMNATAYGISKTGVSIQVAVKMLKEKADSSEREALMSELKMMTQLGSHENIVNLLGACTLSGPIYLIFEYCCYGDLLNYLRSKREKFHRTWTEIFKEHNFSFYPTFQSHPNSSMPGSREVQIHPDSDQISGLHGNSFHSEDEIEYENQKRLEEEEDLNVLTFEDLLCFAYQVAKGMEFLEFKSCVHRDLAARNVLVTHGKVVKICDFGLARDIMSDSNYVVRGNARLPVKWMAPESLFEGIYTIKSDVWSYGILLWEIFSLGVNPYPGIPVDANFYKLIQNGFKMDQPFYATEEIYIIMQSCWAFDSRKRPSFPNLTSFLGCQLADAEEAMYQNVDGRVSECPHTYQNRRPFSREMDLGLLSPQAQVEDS
Sequence of Calcium/calmodulin-dependent protein kinase type 1 (Homo sapiens) (Q14012 whole entry, looked up, canonical isoform): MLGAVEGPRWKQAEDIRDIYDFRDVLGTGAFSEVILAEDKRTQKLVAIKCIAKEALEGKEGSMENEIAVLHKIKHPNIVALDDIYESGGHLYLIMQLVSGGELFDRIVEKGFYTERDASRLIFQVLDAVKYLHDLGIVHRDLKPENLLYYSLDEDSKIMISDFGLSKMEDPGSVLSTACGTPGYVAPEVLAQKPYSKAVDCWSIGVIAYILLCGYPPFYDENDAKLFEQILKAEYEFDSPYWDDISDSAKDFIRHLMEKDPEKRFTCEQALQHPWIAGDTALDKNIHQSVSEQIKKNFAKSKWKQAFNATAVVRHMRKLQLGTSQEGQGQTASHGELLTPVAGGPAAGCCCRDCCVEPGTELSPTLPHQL
Sequence of MAP kinase-activated protein kinase 3 (Homo sapiens) (Q16644 whole entry, looked up): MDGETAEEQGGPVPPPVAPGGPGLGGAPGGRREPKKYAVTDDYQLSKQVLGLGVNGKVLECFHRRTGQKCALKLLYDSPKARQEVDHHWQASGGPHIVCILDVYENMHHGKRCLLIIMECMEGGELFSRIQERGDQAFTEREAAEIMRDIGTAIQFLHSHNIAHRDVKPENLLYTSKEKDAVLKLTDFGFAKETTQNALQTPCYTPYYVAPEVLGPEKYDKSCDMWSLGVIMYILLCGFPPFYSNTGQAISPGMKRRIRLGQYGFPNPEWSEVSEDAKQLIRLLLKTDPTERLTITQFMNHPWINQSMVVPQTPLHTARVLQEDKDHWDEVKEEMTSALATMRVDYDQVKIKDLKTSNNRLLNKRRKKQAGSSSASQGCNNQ
Sequence of Muscarinic acetylcholine receptor M3 (Homo sapiens) (P20309 whole entry, looked up): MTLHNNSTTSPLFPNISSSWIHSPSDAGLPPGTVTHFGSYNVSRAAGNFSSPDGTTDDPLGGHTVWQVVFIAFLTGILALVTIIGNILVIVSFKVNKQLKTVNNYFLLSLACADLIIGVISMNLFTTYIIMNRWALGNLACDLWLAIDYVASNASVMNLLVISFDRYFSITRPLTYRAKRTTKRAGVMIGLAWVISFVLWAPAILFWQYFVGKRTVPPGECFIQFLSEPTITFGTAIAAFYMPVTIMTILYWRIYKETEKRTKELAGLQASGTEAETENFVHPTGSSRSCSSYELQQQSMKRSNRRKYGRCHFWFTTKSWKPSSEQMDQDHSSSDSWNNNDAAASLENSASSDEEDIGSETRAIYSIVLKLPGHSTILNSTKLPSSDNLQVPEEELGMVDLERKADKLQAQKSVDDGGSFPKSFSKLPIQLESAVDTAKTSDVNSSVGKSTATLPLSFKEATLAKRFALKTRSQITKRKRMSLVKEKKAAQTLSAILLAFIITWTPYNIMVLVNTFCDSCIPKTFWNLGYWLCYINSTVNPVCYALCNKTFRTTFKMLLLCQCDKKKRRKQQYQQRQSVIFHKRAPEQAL
Sequence of Cyclin-dependent kinase 18 (Homo sapiens) (Q07002 whole entry): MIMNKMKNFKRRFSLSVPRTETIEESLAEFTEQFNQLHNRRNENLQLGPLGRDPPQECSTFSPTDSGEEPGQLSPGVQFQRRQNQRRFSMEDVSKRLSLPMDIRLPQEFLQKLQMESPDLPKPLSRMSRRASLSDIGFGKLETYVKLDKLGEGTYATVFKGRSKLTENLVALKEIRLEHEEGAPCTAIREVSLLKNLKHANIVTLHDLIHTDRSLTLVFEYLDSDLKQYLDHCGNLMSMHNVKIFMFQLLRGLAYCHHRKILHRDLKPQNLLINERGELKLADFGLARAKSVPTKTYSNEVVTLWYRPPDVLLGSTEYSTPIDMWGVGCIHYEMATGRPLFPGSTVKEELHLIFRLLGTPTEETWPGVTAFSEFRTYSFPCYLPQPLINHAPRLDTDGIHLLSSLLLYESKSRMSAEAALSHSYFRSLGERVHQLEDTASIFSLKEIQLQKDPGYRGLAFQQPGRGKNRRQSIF

CC1=C(C#N)C(c2ccc3[nH]nc(C)c3c2)C(C#N)=C(C)N1 [BAY-474]
7% (not active): inhibition at 60 min, 10 µM (hERG (KCNH2))
inactive: inhibition [1] -8% | inhibition [2] -9% | inhibition [3] -9% | inhibition [4] -5% | inhibition [5] -1% | inhibition [6] 19% | inhibition [7] -8% | inhibition [8] 9% | inhibition [9] 5% | inhibition [10] 52% | inhibition [11] 8% | inhibition [12] -2% | inhibition [13] 9% | inhibition [14] 1% | inhibition [15] 2% | inhibition [16] 6%

CC1=C(C#N)[C@@H](c2ccc3[nH]nc(C)c3c2)C(C#N)=C(c2ccc(Cl)cc2)N1 [BAY-827]
inactive: residual activity [18] 100% | residual activity [19] 100% | residual activity [20] 100% | residual activity [21] 100% | residual activity [22] 86.8% | residual activity [23] 100% | residual activity [24] 91.2% | residual activity [25] 91.2% | residual activity [26] 100% | residual activity [27] 100% | residual activity [28] 88.1% | residual activity [29] 97.2% | residual activity [30] 100% | residual activity [31] 100% | residual activity [32] 100% | residual activity [33] 99.8% | residual activity [34] 100% | residual activity [35] 87.2% | residual activity [36] 100% | residual activity [37] 100% | residual activity [38] 96.7% | residual activity [39] 100% | residual activity [40] 84.6% | residual activity [41] 100% | residual activity [42] 85.4%
0.674 µM: Ki [17]
10 µM: Ki (D(1B) dopamine receptor)
